# System: HeLa-Parkin or HeLa-Parkin/USP30 cells
# Assay: Mitochondrial membrane potential (TMRM signal)
# Format: cell-based
# Details: FCCP 10 μM
# Method: ΔΨm was measured using a fluorescence microplate reader (BioTek Instruments) in cells preincubated with Tetramethylrhodamine methyl ester (TMRM, Thermo Scientific) following manufacturer's instructions. Cells were washed in PBS before resuspension in Hank's balanced salt solution (HBSS; 156 mM NaCl, 3 mM KCl, 2 mM MgSO4, 1.25 mM KH2PO4, 2 mM CaCl2), 10 mM glucose and 10 mM HEPES; pH adjusted to 7.35 with NaOH) (1.0×10^6 cells/ml) containing 50 nM TMRM. For each individual experiment, average TMRM fluorescence was normalized to control cells.
# We initially analyzed mitochondrial function using Tetramethylrhodamine (TMRM), a dye requiring mitochondrial membrane potential to accumulate within the mitochondria.
smiles,measurement,value
"N#CC(C#N)=NNc1ccc(OC(F)(F)F)cc1 [FCCP, Carbonyl cyanide-p-trifluoromethoxyphenylhydrazone, reference compound]",TMRM staining (mitochondrial membrane potential),significant loss of staining
